This note sets out measurements from US8614064B2, “Methods of diagnosing atherosclerosis by measuring ApoCI” (The Johns Hopkins University, priority 2003, dated 2013).

One experiment has as its system cytochrome c. The experiment is described as follows: Immunofluorescence of cytochrome c in human cultured aortic smooth muscle cells. The class given is cell-based. As to conditions: 24 h. How it is done: FIGS. 5A-5C depict the effect of ApoCI, ApoCIII, ApoCI-enriched HDL, and GW4869 on cytochrome c release in ASMC. After treatment of confluent cells for 24 hours with ApoCI (2.5 μg/mL medium), ApoCIII (2.5 μg/mL medium), or ApoCI-enriched HDL (1 μg apoA-I/mL medium), the cells were lysed. The cell lysate was used as the source of cytochrome c, and the pellet was used as a source of caspase-3. The cell lysates were separated by SDS-polyacrylamide gel electrophoresis, blotted onto nitrocellulose, and cytochrome c detected using a polyclonal antibody against cytochrome c (FIG. 5A, top panel). The gels were then subjected to densitometric scanning (FIG. 5B, middle panel). In a separate experiment (FIG. 5C, right), confluent cells were grown on cover slips and pretreated with serum-free medium for 30 minutes. The cells were then incubated with control medium, ApoCI (2.5 μg/mL medium), TNF-α (20 ng/mL), or ApoCI (2.5 μg/mL)+GW4869 (20 μmol/L) for 24 hours. The cells were then washed, treated with a primary anti-cytochrome c antibody, washed with phosphate-buffered saline, and treated with a fluorescein isothiocyanate-conjugated anti-rabbit IgG (FIG. 5C, lower panel).
AOSMC (5×10^3) were grown on cover slips to confluence and pretreated with serum free medium for 30 min as described above. […]

In experiment [1] the test system is human aortic smooth muscles cells (ASMC). Put plainly: Fluorescence microscope quantitative assay of apoptotic death (DAPI staining). The class given is cell-based. As to conditions: for apoptotic cells by white staining of the nucleus with DAPI (FIG. 1A): 2.5 μg/mL medium; for percent of apoptotic cells (DAPI, FIG. 1B): ApoCI and ApoCIII 2.5 μg/mL medium, ApoCI-enriched HDL 1 μg apoA-I/mL, ApoCI-poor HDL 5 μg apoA-I/mL, control 2.24%. As for the experimental part: FIGS. 1A-1C depict the effect of apolipoproteins on apoptosis in human aortic smooth muscles cells (ASMC). ASMC were grown on sterilized glass cover slips and incubated for 24 hours with media alone (control), ApoCIII (negative control, 2.5 μg/mL medium), ApoCI (2.5 μg/mL medium), ApoCI-enriched HDL (1 μg apoA-I/mL medium), or ApoCI-poor HDL (5 μg apoA-I/mL medium) for 24 hours. Cells were then fixed with ethanol-acetic acid (3:1 volume/volume) and washed 3 times with phosphate-buffered saline. The cells were then stained with DAPI reagent, mounted on a glass cover slide, and subjected to fluorescence microscopy. FIG. 1A: The nucleus of normal cells stains blue and the nucleus of apoptotic cells stains is fragmented white. FIG. 1B: 300 to 500 cells in each sample were counted and the percent of apoptotic cells was plotted. Values are mean±SD; **P<0.01, ***P<0.001. FIG. 1C: DNA ladder assay. Confluent cultures of ASMC were incubated with control medium alone, ApoCI (2.5 μg/mL medium), ApoCIII (negative control, 2.5 μg/mL medium), and TNF-α (positive control, 20 ng/mL medium). Genomic DNA was extracted and 10 μg DNA was subjected to agarose gel electrophoresis. The gels were calibrated with commercially available DNA standards. After electrophoresis, the gels were stained with ethidium bromide and then photographed.
FIGS. 2A-2B depict the effect of ApoCI, the N-SMase inhibitor, GW4869, and C-2 ceramide on apoptosis in cultured human ASMC. FIG. 2A: ASMC (1×10^3) were seeded on sterilized glass cover slips and grown in tissue culture medium with 10% fetal calf serum for 48 hours. […] Thirty minutes later, vehicle DMSO, ApoCI (2.5 μg/mL), or C2-ceramide (10 μmol/L) were added to dishes, and the incubation continued for 24 hours. The cells were then fixed with ethanol-acetic acid (3:1 v/v), stained with DAPI reagent, assessed by fluorescent microscopy, and photographed. Top to bottom: control cells; cells incubated with ApoCI± the N-SMase inhibitor, GW4869; and cells incubated with ApoCI GW4869, and C2-ceramide. FIG. 2B: The DAPI-stained ASMC from the four experimental conditions described was analyzed for quantitative apoptosis. Mean (SD) from 4 experiments. *P<0.05.
Human AoSMC that were negative for mycoplasma, hepatitis B and C and HIV-1 were purchased from Clonetics (San Diego, Calif.) and cultured in Dulbecco's minimal essential medium (Invitrogen, Carlsbad, Calif.) with 10% fetal bovine serum (Hyclone, Salt Lake City, Utah), 100-units/ml penicillin, 100-μg/ml streptomycin to confluence. The cells were incubated in serum-free medium for 30 min prior to initiating the experiments. Cells were then washed and harvested in PBS, and centrifuged at 1500 rpm for 5 min at 4° C. Protease inhibitors were then added and the pellets stored frozen at −30° C. until use.
1×10^3 cells were grown on sterilized glass cover slips in 6-well trays and treated with ApoCI (2.5 μg/ml medium), ApoCIII (2.5 μg/ml medium), tumor necrosis factor (TNF)-α (30 ng/ml), ApoCI-enriched HDL (1 μg apoA-I/ml medium) and ApoCI-poor HDL (5 μg apoA-I/ml medium). After 24 h incubation, the medium was removed, cells fixed with ethanol:acetic acid […] and stored at 4° C. Next, the fixing solution was removed and cells stored frozen at −30° C. Cover slips were mounted on the microscope slides and stained with DAPI reagent (4,6-diamino-2-phenylindol, dihydrochloride). The stained nuclei were visualized by fluorescence microscopy (Zeiss Axiovert 25). Apoptotic cells were determined after counting—500 cells in a double blind fashion.

With `O=C(/C=C/c1ccc(/C=C/C(=O)Nc2ccc(C3=NCCN3)cc2)cc1)Nc1ccc(C2=NCCN2)cc1` [GW4869], the “effect of GW4869 on ApoCI-induced cytochrome c release (immunofluorescence)” value with cytochrome c (ApoCI 2.5 μg/mL + GW4869 20 μmol/L) is given as “inhibited”. In addition, the “effect of GW4869 on ApoCI-induced apoptosis, lower dose” value in experiment [1] (GW4869 10 μmol/L) was “also observed”. The “effect of GW4869 on ApoCI-induced apoptosis” value in experiment [1] (GW4869 20 μmol/L, 30 min before ApoCI 2.5 μg/mL, 24 h) was “completely abrogated”.

“ApoCIII: purified human ApoCIII purchased from Academy Bio-Medical Company, used as negative control”: in experiment [1] (24 h), the “apoptotic cells by white staining of the nucleus with DAPI (FIG. 1A)” value is “only a few apoptotic cells” and the “percent of apoptotic cells (DAPI, FIG. 1B)” value came to 4.78%.

Regarding “Apolipoprotein C-I (TPDVSSALDKLKEFGNTLEDKARELISRIKQSELSAKMREWFSETFQKVKEKLKIDS; UniProt P02654 27-83, looked up) [ApoCI, 6.6-kDa single-chain plasma protein of 57 amino acids; purified human ApoCI purchased from Academy Bio-Medical Company]”, the “release of cytochrome c from mitochondria into the cytoplasm (immunofluorescence)” value in the experiment on cytochrome c (ApoCI 2.5 μg/mL) was “marked increase”. For the same compound, in experiment [1] (24 h), the “apoptotic cells by white staining of the nucleus with DAPI (FIG. 1A)” value is listed as “many apoptotic cells” and the “percent of apoptotic cells (DAPI, FIG. 1B)” value is listed as 26.19%. For the same compound, the “ApoCI-induced apoptosis, percent apoptotic cells (FIG. 2B)” value in experiment [1] (ApoCI 2.5 μg/mL, 24 h, control ~2%) is on record as approximately 12%.
